Nine molecules from patent US20250376479A1, “EXATECAN DERIVATIVES AND USES THEREOF” (priority 2024, published 2025) can be followed below.

The test system of series [1] is NCI-H524. The series can be described thus: Cytotoxicity test, luminescent cell viability. The series is classed as cell-based. The note with it: Homo sapiens; NCI-H524 (SCLC), 72-hour incubation. The source says:
(§1) Cytotoxicity of compounds was investigated using SHP77 (SCLC ATCC No. CRL-2195), NCI-H82 (SCLC, Jennio-bio No. JNO-22126A), NCI-H524 (SCLC, Pricella NO. CL-0403), NCI-H226 (Lung cancer, Pricella NO. CL-0396), NCI-H460 (LCLC, Pricella NO. CL-0299), OVCAR3 (Ovarian cancer, ATCC No. HTB-161), OV90 (Ovarian cancer, ATCC No. CRL-11732), LS1034 (Colon carcinoma, cobioer No. CBP60013), HT55 (Colon carcinoma, cobioer No. CBP60012), MDA-MB-468 (Breast cancer, ATCC No.htb-132) and NCI-N87 (Stomach cancer, ATCC No.CRL-5822). In brief, 5,000 cells/well of cancer cells were platted in white 96-well assay plates with flat clear bottom (Cat. No. BS-MP-96W, Biosharp) (excluding edge wells, which contained medium or PBS only) in 90 μL basic culture medium and were grown at 37° C. in a humidified incubator at 5% CO2 atmosphere. After incubation overnight, each compound was added to the respective wells in an amount of 10 μl of 10× concentrate tests from 100 nM to 0.015 nM. After additional 72-hour incubation, plates were removed from incubator and equilibrated to room temperature. After approximately 30 mins, 50 μL of Cell counting-lite 2.0 Luminescent Cell Viability Assay (Cat. No. G7573, Promega) were added to each well. After shaking the plates at 450 rpm for 3 mins followed by 10-min incubation without shaking, luminescence was measured on the Envision plate reader (Equipment No. 2104, PerkinElmer) with integration time of 250 ms per well. Curves of luminescence versus concentration (nM) were fitted with GraphPad Prism Software.

The test system of series [2] is SHP77. The series can be described thus: Cytotoxicity test, luminescent cell viability. The note with it: Homo sapiens; SHP77 (SCLC), 72-hour incubation. The series is classed as cell-based.
Description: as §1

The subject of series [3] is NCI-H82. The series can be described thus: Cytotoxicity test, luminescent cell viability. The series is classed as cell-based. The note with it: Homo sapiens; NCI-H82 (SCLC), 72-hour incubation.
Description: as §1

The subject of series [4] is LS1034. Put plainly: Cytotoxicity test, luminescent cell viability. Type of series: cell-based. The note with it: Homo sapiens, LS-1034; LS1034 (Colon carcinoma), 72-hour incubation.
Description: as §1

Series [5] relates to OVCAR3. The series can be described thus: Cytotoxicity test, luminescent cell viability. Type of series: cell-based. Conditions: Homo sapiens, OVCAR-3; OVCAR3 (Ovarian cancer), 72-hour incubation.
Description: as §1

Series [6] concerns NCI-H460. The series can be described thus: Cytotoxicity test, luminescent cell viability. The series is classed as cell-based. The note with it: Homo sapiens; NCI-H460 (LCLC), 72-hour incubation.
Description: as §1

In series [7] the test system is NCI-N87. The series can be described thus: Cytotoxicity test, luminescent cell viability. The series is classed as cell-based. The note with it: Homo sapiens; NCI-N87 (Stomach cancer), 72-hour incubation; read-out: IC50 NC-N87.
Description: as §1

Series [8] concerns OV90. The series can be described thus: Cytotoxicity test, luminescent cell viability. Type of series: cell-based. The note with it: Homo sapiens, OV-90; OV90 (Ovarian cancer), 72-hour incubation.
Description: as §1

The test system of series [9] is MDA-MB-468. The series can be described thus: Cytotoxicity test, luminescent cell viability. Type of series: cell-based. The note with it: Homo sapiens; MDA-MB-468 (Breast cancer), 72-hour incubation.
Description: as §1

The test system of series [10] is HT55. The series can be described thus: Cytotoxicity test, luminescent cell viability. Type of series: cell-based. The note with it: Homo sapiens; HT55 (Colon carcinoma), 72-hour incubation.
Description: as §1

The subject of series [11] is NCI-H226. Put plainly: Cytotoxicity test, luminescent cell viability. The note with it: Homo sapiens; NCI-H226 (Lung cancer), 72-hour incubation. Type of series: cell-based.
Description: as §1

A short description of series [12]: Membrane permeability test (Caco-2 monolayer). Conditions: human, Caco-2, pH 7.4. Type of series: in vitro ADME. On the procedure:
Caco-2 cells purchased from ATCC were seeded onto 0.4 μm pore polycarbonate membranes (PC) in 96-well Corning Insert plates at 3.5×10^4 cells/cm^2, and refreshed medium every 4˜5 days until to the 21st to 28th day for confluent cell monolayer formation.
The transport buffer in the study was HBSS with 10.0 mM HEPES at pH 7.40±0.05. Each test compound was tested at 2.00 μM in the presence or absence of 1.00 μM zosuquidar bi-directionally in duplicate. Digoxin was tested at 10.0 μM in the presence or absence of 1.00 μM zosuquidar bi-directionally in duplicate, while nadolol and metoprolol were tested at 2.00 μM in the absence of zosuquidar in A to B direction in duplicate. Final DMSO concentration was adjusted to less than 1%. The plate was incubated for 2 hours in CO2 incubator at 37.0° C., with 5% CO2 at saturated humidity without shaking. And all samples after mixed with acetonitrile containing internal standard were centrifuged at 3220×g for 10 min. Concentrations of test compounds in starting solution, donor solution and receiver solution were quantified by LC-MS/MS methodologies, using peak area ratio of analyte/internal standard. And permeation of lucifer yellow through the monolayer was measured to evaluate the cellular integrity.
The apparent permeability coefficient Papp (cm/s) was calculated using the equation: […]
where dCr/dt is the cumulative concentration of compound in the receiver chamber as a function of time; Vr is the solution volume in the receiver chamber (0.0750 mL on the apical side, 0.250 mL on the basolateral side); A is the surface area for the transport, i.e., 0.143 cm2 for the area of the monolayer; C0 is the initial concentration in the donor chamber.
(In general: Caco-2 cells form a polarised layer with tight junctions and transporters.)

One may read the IC50 as the concentration that inhibits the measured activity by half. The Papp A→B is how fast a substance crosses the layer from the apical side.

Consider `CC[C@@]1(O)C(=O)OCc2c1cc1n(c2=O)Cc2c-1nc1cc(F)c(C)c3c1c2[C@H](NC(=O)C(C)C)CC3` [Compound 10], for which the half-inhibitory concentration (IC50) in series [1] came to 17.9 nM; in [2], 101 nM; in series [3], 61.7 nM; in series [4], 114 nM; in series [5] it was 68.1 nM; in [6], 7.4 nM. In addition, the IC50 in [7] turned out to be 5.2 nM; in [8] it was 9.8 nM; in series [9], 2.9 nM; in series [10] it was 69.6 nM; in series [11] it was 5.1 nM. For the same molecule, the Papp A→B at 2 h, 2 μM in [12] came out at 0.358 ×10⁻⁶ cm/s.

As for `CC[C@@]1(O)C(=O)OCc2c1cc1n(c2=O)Cc2c-1nc1cc(F)c(C)c3c1c2[C@H](NC(=O)C1COC1)CC3` [Compound 4], the IC50 in series [1] came out at 90.6 nM; in series [2] it was 655 nM; in series [3], 1500 nM; in [4] it was 249 nM; in [5] it was 395 nM; in series [6] it was 31.2 nM. Moreover, the IC50 stood at 29.6 nM in series [7]; 76 nM in [8]; 6.7 nM in series [9]; 349 nM in [10]; 44.6 nM in series [11]. Moreover, in series [12], the Papp A→B at 2 h, 2 μM came out at 0.026 ×10⁻⁶ cm/s.

As to `CC[C@@]1(O)C(=O)OCc2c1cc1n(c2=O)Cc2c-1nc1cc(F)c(C)c3c1c2[C@H](NC(=O)C1CCC1)CC3` [Compound 6], the IC50 turned out to be 9.9 nM in series [1]; 68 nM in series [2]; 57.3 nM in [3]; 55.3 nM in series [4]; 89.3 nM in series [5]; 6.8 nM in [6]. Besides, the IC50 in series [7] came out at 3.5 nM; in series [8], 8.9 nM; in series [9], 2.5 nM; in [10], 215 nM; in [11], 3.8 nM. For the same molecule, the Papp A→B at 2 h, 2 μM in series [12] amounted to 0.264 ×10⁻⁶ cm/s.

On to `CC[C@@]1(O)C(=O)OCc2c1cc1n(c2=O)Cc2c-1nc1cc(F)c(C)c3c1c2[C@H](NC(=O)CCOC)CC3` [Compound 5], for which the IC50 in series [1] stood at 21.5 nM; in series [2], 202 nM; in series [3] it was 288 nM; in series [4], 158 nM; in series [5] it was 270 nM; in series [6] it was 19.4 nM. Also, the IC50 was 16.8 nM in series [7]; 9.6 nM in series [8]; 5.1 nM in series [9]; 192 nM in series [10]; 9.8 nM in series [11]. The molecule further showed a Papp A→B at 2 h, 2 μM in series [12] of 0.105 ×10⁻⁶ cm/s.

For `CCCCC(=O)N[C@@H]1CCc2c(C)c(F)cc3nc4c(c1c23)Cn1c-4cc2c(c1=O)COC(=O)[C@]2(O)CC` [Compound 1], the half-maximal inhibitory concentration (IC50) in series [1] worked out at 4.4 nM; in [2] it was 45.7 nM; in series [3] it was 96 nM; in [4] it was 63.5 nM; in [5] it was 92.9 nM; in series [6], 10.2 nM. The 50% inhibitory concentration (IC50) was 6.2 nM in series [7]; 3.9 nM in series [8]; 2.5 nM in [9]; 130 nM in series [10]; 4.8 nM in series [11]. This molecule yielded a Papp A→B at 2 h, 2 μM in series [12] of 0.365 ×10⁻⁶ cm/s.

For `CC[C@@]1(O)C(=O)OCc2c1cc1n(c2=O)Cc2c-1nc1cc(F)c(C)c3c1c2[C@H](NC(=O)C1CC1)CC3` [Compound 3], the IC50 in series [1] amounted to 11.3 nM; in [2], 60 nM; in series [3], 50.2 nM; in series [4], 41.7 nM; in [5], 91.2 nM; in series [6], 8.9 nM. The IC50 in series [7] was determined as 5.3 nM; in series [8], 5.1 nM; in series [9], 2.1 nM; in series [10], 68.1 nM; in series [11], 3.6 nM. For the same molecule, the Papp A→B at 2 h, 2 μM in [12] was 0.279 ×10⁻⁶ cm/s.

Take `CC[C@@]1(O)C(=O)OCc2c1cc1n(c2=O)Cc2c-1nc1cc(F)c(C)c3c1c2[C@H](NC(=O)CN(C)C)CC3` [Compound 2]: the IC50 in series [1] was 40.4 nM; in series [2], 301 nM; in series [3], 154 nM; in series [4], 205 nM; in [5] it was 208 nM; in series [6], 15.5 nM. For the same molecule, the IC50 in series [7] is 13 nM; in [8], 15.2 nM; in [9], 10.8 nM; in series [10], 315 nM; in series [11] it was 21 nM. Besides, the Papp A→B at 2 h, 2 μM in series [12] is 0.199 ×10⁻⁶ cm/s.

Regarding `CC[C@@]1(O)C(=O)OCc2c1cc1n(c2=O)Cc2c-1nc1cc(F)c(C)c3c1c2[C@H](NC(=O)C1CCCO1)CC3` (some centres unmarked) [Compound 7], the IC50 was found to be 39.5 nM in series [1]; 236 nM in [2]; 171 nM in [3]; 170 nM in series [4]; 144 nM in series [5]; 11.2 nM in [6]. Besides, the IC50 in [7] amounted to 7.4 nM; in series [8], 26 nM; in series [9], 4.8 nM; in series [10] it was 104 nM; in series [11], 17.9 nM. In series [12], this molecule returned a Papp A→B at 2 h, 2 μM of 0.56 ×10⁻⁶ cm/s.

On to `CC[C@@]1(O)C(=O)OCc2c1cc1n(c2=O)Cc2c-1nc1cc(F)c(C)c3c1c2[C@H](NC(=O)CC(C)C)CC3` [Compound 8], for which the IC50 stood at 21 nM in series [1]; 156 nM in series [2]; 53.8 nM in series [3]; 159 nM in [4]; 95.7 nM in series [5]; 4.5 nM in [6]. In addition, the IC50 in [7] worked out at 4.7 nM; in series [8] it was 17.8 nM; in series [9] it was 2.1 nM; in series [10] it was 110 nM; in series [11], 6 nM.
